Conditions: 100 kPa, Liquid; for electrical conductivity: Frequency=0.0006 MHz, Alternating current cell with electrodes; for viscosity: Concentric cylinders viscometry; for mass density: Vibrating tube method

CCCC[N+](CCO)(CCO)CCO.O=S(=O)([N-]S(=O)(=O)C(F)(F)F)C(F)(F)F
Conditions | electrical conductivity [S/m] | mass density [kg/m3] | viscosity [mPa·s]
283.15 K | 0.004 | – | –
288.15 K | 0.007 | – | 2752.6
289.15 K | – | 1464.4 | –
290.15 K | – | 1463.6 | –
291.15 K | – | 1462.7 | –
292.15 K | – | 1461.8 | –
293.15 K | 0.011 | 1461 | 1684.4
294.15 K | – | 1460.1 | –
295.15 K | – | 1459.2 | –
296.15 K | – | 1458.3 | –
297.15 K | – | 1457.5 | –
298.15 K | 0.016 | 1456.6 | 1072
299.16 K | – | 1455.7 | –
300.16 K | – | 1454.9 | –
301.15 K | – | 1454 | –
302.15 K | – | 1453.1 | –
303.15 K | 0.024 | 1452.3 | 708.7
304.15 K | – | 1451.4 | –
305.15 K | – | 1450.5 | –
306.15 K | – | 1449.7 | –
307.15 K | – | 1448.8 | –
308.15 K | 0.034 | 1447.9 | 484.5
309.15 K | – | 1447.1 | –
310.15 K | – | 1446.2 | –
311.15 K | – | 1445.4 | –
312.15 K | – | 1444.5 | –
313.15 K | 0.046 | 1443.6 | 340.8
314.15 K | – | 1442.8 | –
315.15 K | – | 1441.9 | –
316.15 K | – | 1441 | –
317.15 K | – | 1440.2 | –
318.15 K | 0.062 | 1439.3 | 245.9
319.15 K | – | 1438.4 | –
320.15 K | – | 1437.6 | –
321.15 K | – | 1436.7 | –
322.15 K | – | 1435.8 | –
323.15 K | 0.082 | 1435 | 182
324.15 K | – | 1434.1 | –
325.15 K | – | 1433.2 | –
326.15 K | – | 1432.4 | –
327.15 K | – | 1431.5 | –
328.15 K | – | 1430.6 | 137.7
329.15 K | – | 1429.8 | –
330.15 K | – | 1428.9 | –
331.15 K | – | 1428.1 | –
332.15 K | – | 1427.2 | –
333.15 K | – | 1426.3 | 106.6
334.15 K | – | 1425.5 | –
335.16 K | – | 1424.6 | –
336.15 K | – | 1423.8 | –
337.15 K | – | 1422.9 | –
338.15 K | – | 1422.1 | 83.5
339.15 K | – | 1421.2 | –
340.15 K | – | 1420.4 | –
341.15 K | – | 1419.5 | –
342.15 K | – | 1418.7 | –
343.15 K | – | 1417.8 | 66.7
344.15 K | – | 1417 | –
345.15 K | – | 1416.1 | –
346.15 K | – | 1415.3 | –
347.15 K | – | 1414.5 | –
348.15 K | – | 1413.6 | 54.1
349.15 K | – | 1412.8 | –
350.15 K | – | 1411.9 | –
351.15 K | – | 1411.1 | –
352.15 K | – | 1410.3 | –
353.15 K | – | 1409.4 | 44.7
354.15 K | – | 1408.6 | –
355.15 K | – | 1407.7 | –
356.15 K | – | 1406.9 | –
357.15 K | – | 1406.1 | –
358.15 K | – | 1405.2 | 37
359.15 K | – | 1404.4 | –
360.15 K | – | 1403.6 | –
361.15 K | – | 1402.8 | –
362.16 K | – | 1401.9 | –
363.15 K | – | 1401.1 | 31.1

C[N+](CCO)(CCO)CCO.O=S(=O)([N-]S(=O)(=O)C(F)(F)F)C(F)(F)F
Conditions | electrical conductivity [S/m] | mass density [kg/m3] | viscosity [mPa·s]
283.15 K | 0.01 | – | –
288.15 K | 0.017 | – | 1283.1
289.15 K | – | 1574.9 | –
290.15 K | – | 1574 | –
291.15 K | – | 1573.1 | –
292.15 K | – | 1572.2 | –
293.15 K | 0.025 | 1571.3 | 838.5
294.15 K | – | 1570.4 | –
295.15 K | – | 1569.5 | –
296.15 K | – | 1568.6 | –
297.15 K | – | 1567.7 | –
298.15 K | 0.036 | 1566.8 | 568.8
299.16 K | – | 1565.9 | –
300.16 K | – | 1565 | –
301.15 K | – | 1564.1 | –
302.15 K | – | 1563.2 | –
303.15 K | 0.05 | 1562.3 | 397.8
304.15 K | – | 1561.4 | –
305.15 K | – | 1560.5 | –
306.15 K | – | 1559.6 | –
307.15 K | – | 1558.7 | –
308.15 K | 0.068 | 1557.8 | 285.9
309.15 K | – | 1556.9 | –
310.15 K | – | 1556 | –
311.15 K | – | 1555.1 | –
312.15 K | – | 1554.2 | –
313.15 K | 0.09 | 1553.3 | 211.1
314.15 K | – | 1552.4 | –
315.15 K | – | 1551.5 | –
316.15 K | – | 1550.6 | –
317.15 K | – | 1549.7 | –
318.15 K | 0.117 | 1548.8 | 158.7
319.15 K | – | 1547.9 | –
320.15 K | – | 1547 | –
321.15 K | – | 1546.1 | –
322.15 K | – | 1545.2 | –
323.15 K | 0.149 | 1544.3 | 122
324.15 K | – | 1543.4 | –
325.15 K | – | 1542.5 | –
326.15 K | – | 1541.6 | –
327.15 K | – | 1540.7 | –
328.15 K | – | 1539.8 | 95.6
329.15 K | – | 1538.9 | –
330.15 K | – | 1538.1 | –
331.15 K | – | 1537.2 | –
332.15 K | – | 1536.3 | –
333.15 K | – | 1535.4 | 76.5
334.15 K | – | 1534.5 | –
335.16 K | – | 1533.6 | –
336.15 K | – | 1532.8 | –
337.15 K | – | 1531.9 | –
338.15 K | – | 1531 | 61.7
339.15 K | – | 1530.1 | –
340.15 K | – | 1529.2 | –
341.15 K | – | 1528.4 | –
342.15 K | – | 1527.5 | –
343.15 K | – | 1526.6 | 50.6
344.15 K | – | 1525.8 | –
345.15 K | – | 1524.9 | –
346.15 K | – | 1524 | –
347.15 K | – | 1523.1 | –
348.15 K | – | 1522.3 | 42.1
349.15 K | – | 1521.4 | –
350.15 K | – | 1520.5 | –
351.15 K | – | 1519.7 | –
352.15 K | – | 1518.8 | –
353.15 K | – | 1518 | 35.6
354.15 K | – | 1517.1 | –
355.15 K | – | 1516.2 | –
356.15 K | – | 1515.4 | –
357.15 K | – | 1514.5 | –
358.15 K | – | 1513.6 | 30.1
359.15 K | – | 1512.8 | –
360.15 K | – | 1511.9 | –
361.15 K | – | 1511.1 | –
362.16 K | – | 1510.2 | –
363.15 K | – | 1509.3 | 25.8

From the NIST ThermoML archive (doi:10.1021/acs.jced.9b00442)
